Experimental data taken from ChEMBL document CHEMBL3272293, “Use of distribution coefficients in quantitative structure-activity relationships” (J Med Chem, 1977).

Key:
physchem [1] = conditions: pH 7.8
Description: Dissociation constant, pKa of the compound at pH 7.8

[2] = octanol/water
physchem [3] = conditions: octanol/aqueous phase
Description: Octanol-aqueous phase partition coefficient, log P of the compound

physchem [4] = conditions: pH 6.8
Description: Dissociation constant, pKa of the compound at pH 6.8

physchem [5] = conditions: octanol/aqueous phase; remark: listed apart in the source
Colon = assay: Drug absorption in anesthetized rat colon at pH 6.8; format: ADME, tissue-based; conditions: in vivo
physchem [6] = conditions: octanol/water
Description: (§1) Octanol-water partition coefficient, log P of the compound

physchem [7] = assay: physchem
Neuron = assay: Increase in membrane potential in mollusc neurons assessed as conductance of potassium at pH 7.8 relative to salicylic acid; format: functional, Mollusca
[8] = Octanol-aqueous phase distribution coefficient, log D of the compound at pH 5; format: physicochemical
[9] = Uncoupling of oxidative phosphorylation in rat liver mitochondria at pH 5 relative to control; format: functional
[10] = Octanol-aqueous phase distribution coefficient, log D of the compound at pH 8; format: physicochemical
[11] = Octanol-aqueous phase distribution coefficient, log D of the compound at pH 7; format: physicochemical
[12] = Uncoupling of oxidative phosphorylation in rat liver mitochondria at pH 8 relative to control; format: functional
[13] = Uncoupling of oxidative phosphorylation in rat liver mitochondria at pH 6 relative to control; format: functional
[14] = Octanol-aqueous phase distribution coefficient, log D of the compound at pH 6; format: physicochemical
[15] = Uncoupling of oxidative phosphorylation in rat liver mitochondria at pH 7 relative to control; format: functional
Small intestine = assay: Drug absorption in rat small intestine; format: ADME, tissue-based; conditions: in vivo
[16] = Dissociation constant, pKa of the compound at pH 5.3; format: physicochemical
[17] = octanol/water; remark: listed apart in the source
Description: as §1

[18] = Dissociation constant, pKa of the compound by titrimetric analysis; format: physicochemical
[19] = Octanol-aqueous phase […] of the compound at pH 7.10; format: physicochemical; conditions: pH 7.1

Row | SMILES | pKa (physchem [1]) | logD (physchem [5]) | log%Abs (Colon) | logP (physchem [6]) | pKa (physchem [7]) | fold change (FC) (Neuron) | further results
1 | Cc1ccc(C(=O)O)cc1 [4-METHYLBENZOIC ACID] | 3.44 | – | – | – | – | – | logD [2]: -2.09
2 | O=[N+]([O-])c1cccc(O)c1 [3-NITRO-PHENOL] | – | 2 | 1.64 | – | – | – | logP (physchem [3]): 2; pKa (physchem [4]): 1.4
3 | CCC(=O)c1ccc(O)cc1 [PAROXYPROPIONE] | – | 1.81 | 1.66 | – | – | – | logP (physchem [3]): 1.85; pKa (physchem [4]): 1
4 | O=C(O)c1cc([N+](=O)[O-])ccc1O | 5.48 | -3.27 | 0.3 | 2.21 | 2.32 | 0 | logP (physchem [3]): 1.98; pKa (physchem [4]): 4.5
5 | O=C(O)c1ccccc1O [SALICYLIC ACID] | – | – | 1.08 | 2.21 | – | – | logD [2]: -2.62
6 | O=C(O)c1cc(Cl)ccc1O [5-CHLOROSALICYLIC ACID] | 5.17 | -2.15 | – | 3.02 | 2.63 | 1 | –
7 | O=C(O)c1cccc(Br)c1 | 3.94 | – | – | 2.84 | – | 0.48 | logD [2]: -1.1
8 | CC(C)CCCCCc1cc([N+](=O)[O-])c(O)c([N+](=O)[O-])c1 | – | – | – | – | 4.1 | – | logP (physchem [3]): 5.32; logD [8]: 4.32; fold change (FC) [9]: 6.08; logD [10]: 1.42; logD [11]: 2.42; fold change (FC) [12]: 5.41; fold change (FC) [13]: 5.89; logD [14]: 3.42; fold change (FC) [15]: 5.64
9 | O=C(O)c1ccc([N+](=O)[O-])cc1 [4-NITROBENZOIC ACID] | 4.39 | – | – | 1.89 | 3.41 | -0.52 | logD [2]: -2.5
10 | Cn1c(=O)c2[nH]cnc2n(C)c1=O.O [THEOPHYLLINE] | – | -0.78 | – | – | – | – | logP (physchem [3]): -0.78; log%Abs (Small intestine): 1.46
11 | O=C(O)c1ccccc1Cl | 4.88 | – | – | 1.98 | – | -0.7 | logD [2]: -2.9
12 | O=C(O)c1cccc(O)c1 [3-HYDROXYBENZOIC ACID] | 3.74 | – | – | 1.5 | – | -1 | logD [2]: -2.24
13 | CCCC(C)C1(CC)C(=O)NC(=S)NC1=O (stereo not given) [THIOPENTAL] | – | 2.44 | 1.7 | – | – | – | logP (physchem [3]): 2.5; pKa (physchem [4]): 0.8
14 | O=C(O)c1cc(I)cc(I)c1O | 5.47 | -0.69 | – | 4.78 | 2.33 | 2 | –
15 | O=C(O)c1cccc(Cl)c1 | 3.98 | – | – | 2.68 | – | 0.18 | logD [2]: -1.3
16 | Nc1ccc([N+](=O)[O-])cc1 [4-NITROANILINE] | – | – | 1.7 | – | – | – | log%Abs (Small intestine): 1.83
17 | Nc1cccc([N+](=O)[O-])c1 [3-NITROANILINE] | – | 1.37 | 1.68 | – | – | – | logP (physchem [3]): 1.37; pKa (physchem [4]): 4.3; log%Abs (Small intestine): 1.89; pKa [16]: 2.8
18 | CC(C)CCc1cc([N+](=O)[O-])c(O)c([N+](=O)[O-])c1 | – | – | – | – | 4.1 | – | logP (physchem [3]): 3.82; logD [8]: 2.82; fold change (FC) [9]: 5.5; logD [10]: -0.08; logD [11]: 0.92; fold change (FC) [12]: 4.92; fold change (FC) [13]: 5.42; logD [14]: 1.92; fold change (FC) [15]: 5.18
19 | O=C(O)c1c(O)cccc1O | 5.1 | -2.9 | – | 2.2 | 2.7 | 0.18 | –
20 | O=C(O)c1cc([N+](=O)[O-])cc([N+](=O)[O-])c1O [3,5-DINITROSALICYLIC ACID] | 6.25 | – | – | 2.21 | 1.55 | 0 | logD [2]: -4.04
21 | O=C(O)c1ccc(Br)cc1 | 3.82 | – | – | 2.86 | 3.98 | 0.4 | logD [2]: -0.96
22 | O=C(O)c1cccc([N+](=O)[O-])c1 | 4.33 | – | 1 | 1.83 | 3.47 | -0.7 | logP (physchem [3]): 1.83; pKa (physchem [4]): 3.4; logD [2]: -2.5
23 | Cc1ccc(N)cc1 | – | – | 1.71 | – | – | – | pKa (physchem [4]): 1.5; log%Abs (Small intestine): 1.77; pKa [16]: 0
24 | c1ccc(CC2=NCCN2)cc1 [TOLAZOLINE] | – | -2.35 | 0.6 | – | – | – | logP (physchem [3]): 2.65; pKa (physchem [4]): 3.5; log%Abs (Small intestine): 0.78; pKa [16]: 5

Row | SMILES | pKa (physchem [1]) | logD (physchem [5]) | log%Abs (Colon) | logP (physchem [6]) | pKa (physchem [7]) | fold change (FC) (Neuron) | further results
25 | O=C(O)c1ccc(Cl)c(Cl)c1 | 4.14 | – | – | 3.46 | 3.66 | 0.93 | logD [2]: -0.68
26 | Cc1cc(=O)n(-c2ccccc2)n1C [ANTIPYRINE] | – | – | 1.3 | – | – | – | pKa (physchem [4]): 5.4; log%Abs (Small intestine): 1.51; pKa [16]: 3.9
27 | CCCCC1C(=O)N(c2ccccc2)N(c2ccccc2)C1=O [PHENYLBUTAZONE] | – | – | 1.58 | – | – | – | –
28 | O=C(O)c1cc(Cl)cc(Cl)c1O | 5.5 | -1.62 | – | – | 2.3 | 1.48 | logP [17]: 3.88
29 | O=C(O)c1cccc(I)c1 | – | – | – | 3.13 | 4 | 0.6 | logD [2]: -0.67
30 | O=C(O)c1cc(I)ccc1O | 5.15 | -1.63 | – | 3.52 | 2.65 | 1.43 | –
31 | Nc1ccccc1 [ANILINE] | – | 0.82 | 1.64 | – | – | – | log%Abs (Small intestine): 1.73
32 | O=C(O)c1ccccc1 [BENZOIC ACID] | – | – | 1.28 | – | – | – | –
33 | Oc1ccccc1 [PHENOL] | – | – | 1.55 | – | – | – | –
34 | O=C(O)c1cc(Br)cc(Br)c1O | 5.54 | -1.33 | – | 4.21 | 2.26 | 1.6 | –
35 | CN1CC[C@]23CCCC[C@H]2[C@H]1Cc1ccc(O)cc13 [LEVORPHANOL] | – | 0.02 | 1.11 | – | – | – | pKa [18]: 3; logD [19]: 3.02
36 | C=C[C@H]1C[N@@]2CC[C@H]1C[C@H]2[C@H](O)c1ccnc2ccc(OC)cc12 [QUININE] | – | – | 1.3 | – | – | – | log%Abs (Small intestine): 1.18
37 | O=C(O)c1ccc(I)cc1 | 3.89 | – | – | 3.02 | 3.91 | 0.54 | logD [2]: -0.87
38 | O=C(O)c1cc(O)ccc1O [GENTISIC ACID] | 4.83 | – | – | – | – | -0.7 | –
39 | O=[N+]([O-])c1ccc(O)cc1 [P-NITROPHENOL] | – | – | – | – | – | – | logP (physchem [3]): 1.96; logD [8]: 1.96; fold change (FC) [9]: 3.3; logD [10]: 0.96; logD [11]: 1.66; fold change (FC) [12]: 3.39; fold change (FC) [13]: 3.37; logD [14]: 1.96; fold change (FC) [15]: 3.51
40 | CN[C@@H](C)[C@H](O)c1ccccc1 [EPHEDRINE] | – | – | 0.95 | – | – | – | log%Abs (Small intestine): 0.85
41 | O=[N+]([O-])c1ccccc1O [NITROPHENOLATE] | – | 1.58 | 1.74 | – | – | – | logP (physchem [3]): 1.79; pKa (physchem [4]): 0.2
42 | O=C(O)c1cc(Br)ccc1O | 5.18 | -1.97 | – | 3.21 | 2.62 | 1.23 | –
43 | CC(=O)Nc1ccccc1 [ACETANILIDE] | – | 1.16 | 1.56 | – | – | – | pKa (physchem [4]): 6.5; log%Abs (Small intestine): 1.62; pKa [16]: 5
44 | COc1ccc(O)c(C(=O)O)c1 | 4.94 | -2.53 | – | 2.41 | 2.86 | 0.18 | –
45 | CC(C)Cc1cc([N+](=O)[O-])c(O)c([N+](=O)[O-])c1 | – | – | – | – | 4.3 | – | logP (physchem [3]): 3.32; logD [8]: 2.52; fold change (FC) [9]: 5.16; logD [10]: -0.38; logD [11]: 0.62; fold change (FC) [12]: 4.48; fold change (FC) [13]: 4.88; logD [14]: 1.62; fold change (FC) [15]: 4.71
46 | O=C(O)c1ccc(O)cc1O [2,4-DIHYDROXYBENZOIC ACID] | – | -1.5 | – | 1.6 | 4.7 | -1 | –
47 | Cc1c(N(C)C)c(=O)n(-c2ccccc2)n1C [AMINOPYRINE] | – | – | 1.32 | – | – | – | pKa (physchem [4]): 1.8; log%Abs (Small intestine): 1.52; pKa [16]: 0.3
48 | Cc1cc([N+](=O)[O-])c(O)c([N+](=O)[O-])c1C | – | – | – | – | 4.2 | – | logP (physchem [3]): 2.54; logD [8]: 1.64; fold change (FC) [9]: 4.92; logD [10]: -1.26; logD [11]: -0.26; fold change (FC) [12]: 3.95; fold change (FC) [13]: 4.51; logD [14]: 0.74; fold change (FC) [15]: 4.36
